Test results published in patent publication US8513271B2, “Pyrimidine compounds as delta opioid receptor modulators” (Janssen Pharmaceutica, NV, priority 2009, dated 2013).
Where two headings read alike, the source gives them in different places.

Biological target: T1, delta opioid receptor (Mus musculus, UniProt P32300)
T1 construct: NG108-15 cell membranes were purchased from Applied Cell Sciences (Rockville, Md.); host or cells: NG108-15 cell membranes
Test: [35S]GTPγS binding assay in NG108-15 cell membranes (delta opioid functional assay), 200 nM screen
Format: biochemical
Details: NG108-15 cell membranes; for EC50 / GTPγS δ-RelEfficacy @200 nM: averages if tested more than once; for GTPγS δ-opioid receptor Rel Efficacy: relative efficacy from dose response; for GTPγS δ-RelEfficacy @200 nM: 200 nM test compound, relative to calculated max of SNC80 dose response curve

[1] = read-out: GTPγS δ-opioid receptor EC50
[2] = GTPγS δ-opioid receptor EC50 (μM)

T1 sequence (P32300 whole entry): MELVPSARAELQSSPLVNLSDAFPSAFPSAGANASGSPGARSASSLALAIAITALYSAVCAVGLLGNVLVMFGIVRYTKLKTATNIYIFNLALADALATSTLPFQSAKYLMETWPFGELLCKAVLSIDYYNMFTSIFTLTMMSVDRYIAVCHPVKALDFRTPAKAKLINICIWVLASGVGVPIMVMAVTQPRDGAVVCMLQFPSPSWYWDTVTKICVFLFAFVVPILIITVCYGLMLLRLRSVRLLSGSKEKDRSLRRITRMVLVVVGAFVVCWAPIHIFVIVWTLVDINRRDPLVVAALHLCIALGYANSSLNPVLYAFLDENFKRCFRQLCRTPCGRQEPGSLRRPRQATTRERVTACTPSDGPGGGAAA

| Structure (SMILES) | EC50 [1] [µM] | GTPγS δ-opioid receptor Rel Efficacy | EC50 [2] [µM] | GTPγS δ-RelEfficacy @200 nM |
| --- | --- | --- | --- | --- |
| COc1ccc(Oc2nc(-c3cncc(OC)c3)ncc2NC2CCCC(N)C2)cc1 (mixture of isomers) [Cpd 309] | 0.035 | 1.162 |  |  |
| COc1ccc(Oc2nc(-c3cncc(SC)c3)ncc2NC2CCCC(N)C2)cc1 (racemic) [Cpd 310] |  | 1.042 | 0.031 |  |
| COc1ccc(Oc2nc(-c3cccnc3)ncc2NC2CCCC(N)C2)cc1 (single isomer, unassigned) [Cpd 307] |  | 1.191 | 0.011 | 0.880 |
| COc1ccc(Oc2nc(-c3cccnc3)ncc2NC2CCCCC2N)cc1 (single isomer, unassigned) [Cpd 308] |  |  |  | 0.140 |
| COc1ccc(Oc2nc(-c3cncc(SC)c3)ncc2NC2CCCC(N)C2)cc1 (single isomer, unassigned) [Cpd 319] |  | 0.871 | 0.112 |  |
| COc1ccc(Oc2nc(-c3cccnc3)ncc2NC2CCCC(N)C2)cc1 (single isomer, unassigned) [Cpd 323] |  | 0.988 | 0.06 |  |
| CCN(CC)C(=O)c1cccc(Oc2nc(-c3cncc(F)c3)ncc2NC[C@@H]2CCCN2)c1 [Cpd 170] |  |  |  | 0.176 |
| O=C(c1cccc(Oc2nc(-c3cncc(F)c3)ncc2NC[C@@H]2CCCN2)c1)N1CCCC1 [Cpd 171] |  |  |  | 0.257 |
| O=C(c1cccc(Oc2nc(-c3cncc(F)c3)ncc2NC[C@@H]2CCCN2)c1)N1CCCCC1 [Cpd 172] |  |  |  | 0.246 |
| O=C(c1cccc(Oc2nc(-c3cncc(F)c3)ncc2NC[C@@H]2CCCN2)c1)N1CCOCC1 [Cpd 173] |  |  |  | 0.249 |
| CN1CCN(C(=O)c2cccc(Oc3nc(-c4cncc(F)c4)ncc3NC[C@@H]3CCCN3)c2)CC1 [Cpd 174] |  |  |  | 0.205 |
| CCN(CC)C(=O)c1ccc(Oc2nc(-c3cccnc3)ncc2NC[C@@H]2CCCN2)cc1 [Cpd 175] |  |  |  | 0.005 |
| O=C(c1ccc(Oc2nc(-c3cncc(F)c3)ncc2NC[C@@H]2CCCN2)cc1)N1CCCC1 [Cpd 176] |  |  |  | 0.112 |
| O=C(Nc1ccc(Oc2nc(-c3cccnc3)ncc2NC[C@@H]2CCCN2)cc1)OCc1ccccc1 [Cpd 177, (4-{2-Pyridin-3-yl-5-[(pyrrolidin-2-(S)-ylmethyl)-amino]-pyrimidin-4-yloxy}-phenyl)-carbamic acid benzyl ester] | 0.255 | 1.389 |  | 0.511 |
| Cc1ccc(Oc2nc(-c3cncc(F)c3)ncc2NC[C@@H]2CCCN2)cc1 [Cpd 178] | 0.3 | 1.239 |  | 0.578 |
| CCc1ccc(Oc2nc(-c3cncc(C#N)c3)ncc2NC[C@@H]2CCCN2)cc1 [Cpd 179] | 0.119 | 1.182 |  | 0.601 |
| CCc1ccc(Oc2nc(-c3cncc(Cl)c3)ncc2NC[C@@H]2CCCN2)cc1 [Cpd 180] |  |  |  | 0.250 |
| COc1ccc(Oc2nc(-c3cncnc3)ncc2N(C[C@@H]2CCCN2)C(C)=O)cc1 [Cpd 181, N-[4-(4-Methoxy-phenoxy)-[2,5′]bipyrimidinyl-5-yl]-N-pyrrolidin-2-(S)-ylmethyl-acetamide] |  |  |  | 0.139 |
| CCc1ccc(Oc2nc(-c3cncc(F)c3)ncc2NC[C@@H]2CCCN2)cc1 [Cpd 182] | 0.377 | 1.065 |  | 0.470 |
| Cc1ccc(Oc2nc(-c3cncc(C#N)c3)ncc2NC[C@@H]2CCCN2)cc1F [Cpd 183] |  | 1.091 | 0.091 | 0.723 |
| CCc1ccc(Oc2nc(-c3cccnc3)ncc2NC[C@@H]2CCCN2)cc1 [Cpd 184] | 0.418 | 1.271 |  | 0.497 |
| Cc1ccc(Oc2nc(-c3cncc(F)c3)ncc2NC[C@@H]2CCCN2)cc1F [Cpd 185] | 0.101 | 1.014 |  | 0.447 |
| Cc1ccc(Oc2nc(-c3cncc(Cl)c3)ncc2NC[C@@H]2CCCN2)cc1F [Cpd 186] | 0.331 | 1.113 |  | 0.466 |
| Cc1ccc(Oc2nc(-c3cccnc3)ncc2NC[C@@H]2CCCN2)cc1F [Cpd 187] | 0.16 | 1.104 |  | 0.497 |
| O=C(Nc1cccc(Oc2nc(-c3cccnc3)ncc2NC[C@@H]2CCCN2)c1)OCc1ccccc1 [Cpd 188] | 0.219 | 1.950 |  | 0.779 |
| Cc1ccc(Oc2nc(-c3cncc(C#N)c3)ncc2NC[C@@H]2CCCN2)c(F)c1F [Cpd 189] |  |  |  | 0.375 |
| Cc1ccc(Oc2nc(-c3cncc(Cl)c3)ncc2NC[C@@H]2CCCN2)c(F)c1F [Cpd 190] |  |  |  | 0.222 |

| Structure (SMILES) | EC50 [1] [µM] | GTPγS δ-opioid receptor Rel Efficacy | EC50 [2] [µM] | GTPγS δ-RelEfficacy @200 nM |
| --- | --- | --- | --- | --- |
| Cc1ccc(Oc2nc(-c3cncc(F)c3)ncc2NC[C@@H]2CCCN2)c(F)c1F [Cpd 191] |  |  |  | 0.410 |
| Cc1ccc(Oc2nc(-c3cccnc3)ncc2NC[C@@H]2CCCN2)c(F)c1F [Cpd 192] |  |  |  | 0.135 |
| COc1ccc(Oc2nc(-c3cncc(F)c3)ncc2NC[C@@H]2C[C@@H](F)CN2)cc1 [Cpd 193] |  | 1.090 | 0.032 | 0.801 |
| COc1ccc(Oc2nc(-c3cncc(Cl)c3)ncc2NC[C@@H]2C[C@@H](F)CN2)cc1 [Cpd 194] |  | 1.034 | 0.022 | 0.665 |
| CCc1ccc(Oc2nc(-c3cncc(C#N)c3)ncc2NC[C@@H]2C[C@@H](F)CN2)cc1 [Cpd 195] | 0.194 | 1.119 |  | 0.477 |
| COc1ccc(Oc2nc(-c3cccnc3)ncc2NC[C@@H]2C[C@@H](F)CN2)cc1 [Cpd 196] |  | 1.146 | 0.0693 | 0.800 |
| O=C(Nc1ccc(Oc2nc(-c3cncc(F)c3)ncc2NC[C@@H]2CCCN2)cc1)OCc1ccccc1 [Cpd 197] | 0.145 | 1.289 |  | 0.411 |
| Nc1ccc(Oc2nc(-c3cncc(F)c3)ncc2NC[C@@H]2CCCN2)cc1 [Cpd 198, [4-(4-Amino-phenoxy)-2-(5-fluoro-pyridin-3-yl)-pyrimidin-5-yl]-pyrrolidin-2-(S)-ylmethyl-amine] | 0.118 | 1.050 |  | 0.513 |
| COc1ccc(Oc2nc(-c3cncc(C#N)c3)ncc2N[C@H]2CCCNC2)cc1 [Cpd 199] |  | 1.140 |  | 0.615 |
| Cc1cccc(Oc2nc(-c3cncc(C#N)c3)ncc2NC[C@@H]2CCCN2)c1 [Cpd 200] |  |  |  | 0.289 |
| Cc1cccc(Oc2nc(-c3cncc(Cl)c3)ncc2NC[C@@H]2CCCN2)c1 [Cpd 201] |  |  |  | 0.148 |
| Cc1cccc(Oc2nc(-c3cncc(F)c3)ncc2NC[C@@H]2CCCN2)c1 [Cpd 202] |  |  |  | 0.122 |
| Cc1cccc(Oc2nc(-c3cccnc3)ncc2NC[C@@H]2CCCN2)c1 [Cpd 203] |  |  |  | 0.096 |
| COc1ccc(Oc2nc(-c3cncc(C#N)c3)ncc2NC[C@@H]2CCCN2)cc1C [Cpd 204] |  | 0.982 | 0.026 | 0.911 |
| COc1ccc(Oc2nc(-c3cncc(F)c3)ncc2NC[C@@H]2CCCN2)cc1C [Cpd 205] |  | 1.178 | 0.044 | 0.609 |
| N#Cc1cncc(-c2ncc(NC[C@@H]3CCCN3)c(Oc3ccc(CF)cc3)n2)c1 [Cpd 206] |  |  |  | 0.292 |
| COc1ccc(Oc2nc(-c3cncc(C#N)c3)ncc2N[C@H]2CCCNC2)cc1 [Cpd 207] |  | 1.047 |  | 0.963 |
| COc1ccc(Oc2nc(-c3cncc(C#N)c3)ncc2NC2CCNCC2)cc1 [Cpd 208] |  |  |  | 0.398 |
| c1cncc(Cc2ccc(Oc3nc(-c4cccnc4)ncc3NC[C@@H]3CCCN3)cc2)c1 [Cpd 209, [2-Pyridin-3-yl-4-(4-pyridin-3-ylmethyl-phenoxy)-pyrimidin-5-yl]-pyrrolidin-2-(S)-ylmethyl-amine] |  |  |  | 0.002 |
| COc1ccc(Oc2nc(-c3cncc(Cl)c3)ncc2NC[C@@H]2CCCN2)cc1C [Cpd 210] |  | 1.150 | 0.044 | 0.730 |
| COc1ccc(Oc2nc(-c3cccnc3)ncc2NC[C@@H]2CCCN2)cc1C [Cpd 211] | 0.106 | 1.050 |  | 0.814 |
| CC(=O)Nc1ccc(Oc2nc(-c3cncc(F)c3)ncc2NC[C@@H]2CCCN2)cc1 [Cpd 212] |  | 0.994 | 0.029 |  |
| CS(=O)(=O)Nc1ccc(Oc2nc(-c3cncc(F)c3)ncc2NC[C@@H]2CCCN2)cc1 [Cpd 213, N-(4-{2-(5-Fluoro-pyridin-3-yl)-5-[(pyrrolidin-2-(S)-ylmethyl)-amino]-pyrimidin-4-yloxy}-phenyl)-methanesulfonamide] |  |  |  | 0.079 |
| CS(=O)(=O)Nc1ccc(Oc2nc(-c3cccnc3)ncc2NC[C@@H]2CCCN2)cc1 [Cpd 214] |  |  |  | 0.115 |
| COc1ccc(Oc2nc(-c3cncc(C#N)c3)ncc2NCC2CNC2)cc1 [Cpd 215] | 0.128 | 1.002 |  | 0.674 |
| O=CNc1ccc(Oc2nc(-c3cccnc3)ncc2NC[C@@H]2CCCN2)cc1 [Cpd 216] | 0.494 | 0.969 |  | 0.406 |
